Test results published in ChEMBL document CHEMBL5096171, “Synthesis and Biological Evaluation of PSMA Ligands with Aromatic Residues and Fluorescent Conjugates Based on Them” (J Med Chem, 2021).
Converted amounts (≈) assume the structure as drawn.

Legend:
[1] = biological target: Glutamate carboxypeptidase 2 (Homo sapiens, UniProt Q04609); assay: Inhibition of PSMA derived from human LNCaP cell lysate assessed as inhibition of NAAG hydrolysis incubated for 2 hrs in presence of NAAG by Amplex Red assay; format: subcellular
Glutamate carboxypeptidase 2, sequence (Q04609 whole entry): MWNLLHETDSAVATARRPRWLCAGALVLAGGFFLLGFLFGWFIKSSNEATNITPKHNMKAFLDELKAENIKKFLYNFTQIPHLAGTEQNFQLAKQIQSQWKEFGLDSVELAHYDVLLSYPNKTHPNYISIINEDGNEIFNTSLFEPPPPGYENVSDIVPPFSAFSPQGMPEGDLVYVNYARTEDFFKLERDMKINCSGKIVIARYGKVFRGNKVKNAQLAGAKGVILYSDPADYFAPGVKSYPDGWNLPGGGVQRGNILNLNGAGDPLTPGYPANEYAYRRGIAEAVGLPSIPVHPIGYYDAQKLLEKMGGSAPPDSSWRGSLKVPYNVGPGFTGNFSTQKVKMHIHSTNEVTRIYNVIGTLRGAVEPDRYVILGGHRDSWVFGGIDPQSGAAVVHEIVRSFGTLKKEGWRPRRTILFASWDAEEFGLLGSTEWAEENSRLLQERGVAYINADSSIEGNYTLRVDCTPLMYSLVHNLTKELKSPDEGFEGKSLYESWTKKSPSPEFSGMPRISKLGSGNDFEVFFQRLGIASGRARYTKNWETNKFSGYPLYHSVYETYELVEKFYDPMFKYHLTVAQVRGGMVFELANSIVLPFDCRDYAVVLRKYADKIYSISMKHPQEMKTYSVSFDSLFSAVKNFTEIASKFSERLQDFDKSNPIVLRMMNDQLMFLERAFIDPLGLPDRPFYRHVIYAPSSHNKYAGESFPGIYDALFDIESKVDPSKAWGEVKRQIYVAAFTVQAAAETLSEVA

LNCaP = assay: Cytotoxicity against human LNCaP cells assessed as reduction in cell viability incubated for 5 days by MTT assay; format: functional; settings: 120 h, time 5 day
PC-3 = assay: Cytotoxicity against human PC-3 cells assessed as reduction in cell viability incubated for 5 days by MTT assay; format: functional; settings: PC-3, 120 h, time 5 day
[2] = Drug excretion in […] at 0.449 mg/kg, IT administered as single dose measured after 24 hrs; format: ADME, organism-based, CWR22R; settings: in vivo, other
[3] = Drug uptake in bloodstream of Balb/c nude mouse xenografted with human 22Rv1 cells at 0.449 mg/kg, IT administered as single dose measured upto 8 hrs; format: ADME, organism-based, Blood, CWR22R; settings: in vivo, other
[4] = Drug uptake in human 22Rv1 cells xenografted in Balb/c nude mouse assessed as amount of fluorescence intensity at 0.449 mg/kg, IT administered as single dose measured after 24 hrs by IVIS Spectrum CT analysis; format: ADME, organism-based, CWR22R; settings: in vivo, other
[5] = Drug uptake in human PC-3 cells xenografted in Balb/c nude mouse assessed as amount of fluorescence intensity at 0.449 mg/kg, IT administered as single dose measured after 24 hrs by IVIS Spectrum CT analysis; format: ADME, organism-based; settings: in vivo, other
[6] = C0 in Soviet Chinchilla rabbit by HPLC analysis; format: ADME, Oryctolagus cuniculus; settings: in vivo
[7] = C0 in Wistar Albino rat by HPLC analysis; format: ADME; settings: in vivo
[8] = AUC (0 to t) in Soviet Chinchilla rabbit by HPLC analysis; format: ADME, Oryctolagus cuniculus; settings: in vivo
[9] = AUC (0 to t) in Wistar Albino rat by HPLC analysis; format: ADME; settings: in vivo
[10] = AUC (0 to infinity) in Soviet Chinchilla rabbit by HPLC analysis; format: ADME, Oryctolagus cuniculus; parameters: time infinity; settings: in vivo
[11] = AUC (0 to infinity) in Wistar Albino rat by HPLC analysis; format: ADME; parameters: time infinity; settings: in vivo
[12] = Elimination rate constant in Soviet Chinchilla rabbit by HPLC analysis; format: ADME, Oryctolagus cuniculus
[13] = Elimination rate constant in Wistar Albino rat by HPLC analysis; format: ADME
[14] = Half life in Soviet Chinchilla rabbit by HPLC analysis; format: ADME, Oryctolagus cuniculus; settings: in vivo
[15] = Half life in Wistar Albino rat by HPLC analysis; format: ADME; settings: in vivo
[16] = Volume of distribution in Soviet Chinchilla rabbit by HPLC analysis; format: ADME, Oryctolagus cuniculus; settings: in vivo
[17] = Volume of distribution in Wistar Albino rat by HPLC analysis; format: ADME; settings: in vivo
[18] = Clearance in Soviet Chinchilla rabbit by HPLC analysis; format: ADME, Oryctolagus cuniculus; settings: in vivo
[19] = Clearance in Wistar Albino rat by HPLC analysis; format: ADME; settings: in vivo
[20] = MRT (0 to t) in Soviet Chinchilla rabbit by HPLC analysis; format: ADME, Oryctolagus cuniculus; settings: in vivo
[21] = MRT (0 to t) in Wistar Albino rat by HPLC analysis; format: ADME; settings: in vivo
[22] = Drug distribution in kidney of Wistar Albino rat measured after 2 to 4 hrs; format: ADME, tissue-based; settings: in vivo, time 2-4 hrs
[23] = Drug distribution in liver of Wistar Albino rat measured after 2 to 4 hrs; format: ADME, tissue-based; settings: in vivo, time 2-4 hrs
[24] = Drug distribution in small intestine of Wistar Albino rat measured after 2 to 4 hrs; format: ADME, tissue-based; settings: in vivo, time 2-4 hrs
[25] = Drug excretion in urine of Wistar Albino rat measured after 2 to 4 hrs; format: ADME; settings: in vivo, time 2-4 hrs
[26] = Drug distribution in blood plasma of Wistar Albino rat measured after 2 to 4 hrs; format: ADME, cell-free; settings: time 2-4 hrs
[27] = Acute toxicity in 2 hrs fasted ICR mouse assessed as maximum tolerated dose administered intravenously measured after 14 days; settings: in vivo, route iv
[28] = Acute toxicity in 2 hrs fasted ICR mouse assessed as body weight reduction at 89.7 mg/kg, iv measured for 5 to 10 days; format: organism-based; settings: in vivo
[29] = Acute toxicity in 2 hrs fasted ICR mouse assessed as restoration of mass gain rate at 89.7 mg/kg, iv measured on day 14; format: organism-based; settings: in vivo, 336 h, time 14 day
[30] = Acute toxicity in 2 hrs fasted ICR mouse assessed as toxic effect at 1.1 mg/kg, iv measured after 14 days; format: organism-based; settings: in vivo, 336 h, time 14 day
[31] = Acute toxicity in 2 hrs fasted ICR mouse assessed as reversible decrease in body weight dynamics at 89.7 mg/kg, iv measured after 14 days; format: organism-based; settings: in vivo, 336 h, time 14 day
[32] = Acute toxicity in 10 to 12 hrs fasted Wistar rat assessed as maximum tolerated dose administered intravenously measured after 14 days; settings: in vivo, route iv, time 14 day
[33] = Acute toxicity in 10 to 12 hrs fasted Wistar rat assessed as toxic effect at 0.72 to 45 mg/kg, iv measured after 14 days; format: organism-based; settings: in vivo, 336 h, dose 0.72-45 mg/kg, time 14 day
[34] = Acute toxicity in 10 to 12 hrs fasted Wistar rat assessed as change in body weight dynamics at 0.72 to 45 mg/kg, iv measured after 14 days; format: organism-based; settings: in vivo, 336 h, dose 0.72-45 mg/kg, time 14 day
[35] = Acute toxicity in 10 to 12 hrs fasted Wistar rat assessed as increase in kidney damage at 45 mg/kg, iv measured after 14 days; format: organism-based; settings: in vivo, 336 h, time 14 day
[36] = Chronic toxicity in Soviet Chinchilla rabbit assessed as change in blood albumin content at 120 to 243 mg/kg, iv administered once every 3 weeks; format: organism-based, Oryctolagus cuniculus; settings: in vivo, 504 h, dose 120-243 mg/kg
[37] = Chronic toxicity in Soviet Chinchilla rabbit assessed as signs of intoxication at 120 to 243 mg/kg, iv administered once every 3 weeks; format: organism-based, Oryctolagus cuniculus; settings: in vivo, 504 h, dose 120-243 mg/kg
[38] = Chronic toxicity in Soviet Chinchilla rabbit assessed as change in brain histology at 120 to 243 mg/kg, iv administered once every 3 weeks; format: organism-based, Oryctolagus cuniculus; settings: in vivo, 504 h, dose 120-243 mg/kg
[39] = Chronic toxicity in Soviet Chinchilla rabbit assessed as change in heart histology at 120 to 243 mg/kg, iv administered once every 3 weeks; format: organism-based, Oryctolagus cuniculus; settings: in vivo, 504 h, dose 120-243 mg/kg
[40] = Chronic toxicity in Soviet Chinchilla rabbit assessed as change in lung histology at 120 to 243 mg/kg, iv administered once every 3 weeks; format: organism-based, Oryctolagus cuniculus; settings: in vivo, 504 h, dose 120-243 mg/kg
[41] = Chronic toxicity in Soviet Chinchilla rabbit assessed as change in liver histology at 120 to 243 mg/kg, iv administered once every 3 weeks; format: organism-based, Oryctolagus cuniculus; settings: in vivo, 504 h, dose 120-243 mg/kg
[42] = Chronic toxicity in Soviet Chinchilla rabbit assessed as change in kidney histology at 120 to 243 mg/kg, iv administered once every 3 weeks; format: organism-based, Oryctolagus cuniculus; settings: in vivo, 504 h, dose 120-243 mg/kg
[43] = Chronic toxicity in Soviet Chinchilla rabbit assessed as change in spleen histology at 120 to 243 mg/kg, iv administered once every 3 weeks; format: organism-based, Oryctolagus cuniculus; settings: in vivo, 504 h, dose 120-243 mg/kg
[44] = n-Octanol/aqueous buffer distribution coefficient, log D of compound at pH 6.4 by shake flask method; format: physicochemical
[45] = Water solubility of the compound; format: physicochemical

SMILES: CN1/C(=C/C=C2C=C(/C=C/C3=[N+](CCCCCC(=O)NCc4cn(CCCNC(=O)[C@H](Cc5ccc(O)cc5)NC(=O)[C@H](Cc5ccccc5)NC(=O)CCC(=O)NCCCCCC(=O)N(CCCC[C@H](NC(=O)N[C@@H](CCC(=O)O)C(=O)O)C(=O)O)Cc5cccc(Cl)c5)nn4)c4ccc(S(=O)(=O)[O-])cc4C3(C)C)CCC/2)C(C)(C)c2cc(S(=O)(=O)O)ccc21
- Ki [1]: 0.0181 µM
- CC50 (LNCaP): 12.2 µM
- CC50 (PC-3): 18.7 µM
- Drug uptake [2]: Active
- Drug uptake [3]: Active
- Activity [4]: 1.9 10^9(p/s)(uW/cm^2)
- Activity [5]: 1.9 10^9(p/s)(uW/cm^2)
- C0 [6]: 869 µg/mL
- C0 [7]: 342 µg/mL
- AUC(0-t) [8]: 70000 ng·h/mL
- AUC(0-t) [9]: 53000 ng·h/mL
- AUC(0-inf) [10]: 82000 ng·h/mL
- AUC(0-inf) [11]: 76000 ng·h/mL
- k el [12]: 0.000181 s⁻¹
- k el [13]: 0.000179 s⁻¹
- half-life [14]: 1.39 h
- half-life [15]: 1.78 h
- Vd [16]: 1.49 L/kg
- Vd [17]: 0.954 L/kg
- clearance [18]: 14 mL/min/kg
- clearance [19]: 8.22 mL/min/kg
- MRT last [20]: 0.18 h
- MRT last [21]: 0.719 h
- Drug uptake [22]: Active
- Drug uptake [23]: Active
- Drug uptake [24]: Active
- Drug excretion [25]: Active
- Drug uptake [26]: Active
- MTD at 14 h [27]: 89.7 mg/kg
- Activity [28]: Toxic
- Activity [29]: Non-Toxic
- Activity [30]: Non-Toxic
- Activity [31]: Toxic
- MTD at 336 h [32]: 45 mg/kg
- Activity [33]: Non-Toxic
- Activity [34]: Non-Toxic
- Activity [35]: Toxic
- Activity [36]: Toxic
- Activity [37]: Non-Toxic
- Activity [38]: Non-Toxic
- Activity [39]: Non-Toxic
- Activity [40]: Non-Toxic
- Activity [41]: Non-Toxic
- Activity [42]: Non-Toxic
- Activity [43]: Non-Toxic
- logD [44]: -0.48
- solubility [45]: 560 µg/mL (≈ 312 µM)
